From PubChem BioAssay (NCI)
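Method: 48-hour compound exposure of cells in 96-well plates, five concentrations, linear interpolation of endpoints. GI50 is the concentration that inhibits growth by half. Definition used: TGI = concentration required for complete inhibition of growth.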

How the values were obtained:
Assay in all cases: DTP human tumour cell line panel, 48 h
A549 NSCLC = system: A549 NSCLC
EKVX NSCLC = system: EKVX NSCLC
HCC-2998 colon = system: HCC-2998 colon
HT29 colon = system: HT29 colon
OVCAR-8 ovarian = system: OVCAR-8 ovarian
SK-OV-3 ovarian = system: SK-OV-3 ovarian
SNB-19 CNS = system: SNB-19 CNS
MALME-3M melanoma = system: MALME-3M melanoma
RXF 393 renal = system: RXF 393 renal
RPMI-8226 leukemia = system: RPMI-8226 leukemia

Row | Compound | TGI (A549 NSCLC) | TGI (EKVX NSCLC) | TGI (HCC-2998 colon) | TGI (HT29 colon) | TGI (OVCAR-8 ovarian) | TGI (SK-OV-3 ovarian) | TGI (SNB-19 CNS) | GI50 (A549 NSCLC) | GI50 (EKVX NSCLC) | GI50 (HCC-2998 colon) | GI50 (HT29 colon) | GI50 (MALME-3M melanoma) | TGI (MALME-3M melanoma) | GI50 (OVCAR-8 ovarian) | GI50 (RXF 393 renal) | TGI (RXF 393 renal) | GI50 (SK-OV-3 ovarian) | GI50 (SNB-19 CNS) | GI50 (RPMI-8226 leukemia) | TGI (RPMI-8226 leukemia)
1 | O=C1/C(=C/c2cccc([N+](=O)[O-])c2)Sc2scc(-c3ccc([N+](=O)[O-])cc3)[n+]21 | > 100 µM | 61.1 µM | 29.9 µM | 38.8 µM | > 100 µM | 90.5 µM | 46.1 µM | – | – | – | – | – | – | – | – | – | – | – | – | –
2 | CC(=O)[CH-]C(=O)c1ccccc1.CC(=O)[CH-]C(=O)c1ccccc1.CC1(C)OCC(C2OC3OC(C)(C)OC3C2[O-])O1.CC[O-].[Ti+4] (centres undefined) | 40 µM | 23.3 µM | 29.9 µM | 29.3 µM | 26.9 µM | 61.1 µM | 25.4 µM | 16.6 µM | 6.56 µM | 15.4 µM | 13.7 µM | 13.4 µM | 27.7 µM | 11.5 µM | 3.36 µM | 14.9 µM | 21.9 µM | 12.4 µM | – | –
3 | Cc1cc2c(cc1Cl)S/C(=C/C(=O)O)C(Nc1cccc3nsnc13)=NS2(=O)=O | > 81.3 µM | > 19.9 µM | – | > 63.1 µM | > 74.8 µM | > 62.5 µM | > 66.8 µM | > 51 µM | > 10.5 µM | – | 6.17 µM | > 53.4 µM | > 65.8 µM | > 53.2 µM | > 52.7 µM | > 68.5 µM | > 49.5 µM | > 52 µM | 10.7 µM | 40.6 µM
4 | CC(=O)n1c(=O)c2cc3c(=O)n(-c4cccc(C#N)c4)c(=O)c3cc2c1=O | > 100 µM | > 100 µM | > 100 µM | > 100 µM | > 100 µM | > 100 µM | > 100 µM | – | – | – | – | – | > 100 µM | – | – | > 100 µM | – | – | – | –
5 | c1ccc2[nH]c(CNc3ccc(C4C[Se]N=N4)cc3)nc2c1 (centres undefined) | > 100 µM | – | > 100 µM | > 100 µM | > 100 µM | > 100 µM | > 100 µM | – | – | – | – | – | > 100 µM | – | – | > 100 µM | – | – | – | 81.3 µM
6 | CCOC(=O)c1c(SCCN2CCOCC2)n(-c2ccccc2)c(=S)n(-c2ccccc2)c1=O | > 100 µM | – | > 100 µM | 34.9 µM | > 100 µM | – | > 100 µM | – | – | – | – | – | > 100 µM | – | – | 33.9 µM | – | – | – | 94.1 µM
7 | O=C(NCCN1CCNCC1)c1ccc(Nc2nc3ccccc3c3occc23)cc1 | 36.8 µM | 27.2 µM | 3.9 µM | > 100 µM | 75.7 µM | 47.5 µM | > 100 µM | 17.5 µM | 9.45 µM | 1.79 µM | 4.5 µM | – | – | 23.2 µM | 6.92 µM | 26.4 µM | 19.3 µM | 15.5 µM | 18.7 µM | 49.1 µM
8 | N#C/C(=C1\SC(N=Nc2ccc(Cl)cc2)C(=O)N1c1ccccc1)c1nc2ccccc2[nH]1 (centres undefined) | 87.3 µM | > 100 µM | – | > 100 µM | > 100 µM | 35.6 µM | 89.6 µM | – | – | – | – | – | 99.1 µM | – | – | 67.9 µM | – | – | – | –
9 | CCOC(=O)N1CCN(CCCCCOc2ccccc2C2CCCCC2)CC1 | 17.3 µM | 16.5 µM | – | 12 µM | – | 19.1 µM | 22.6 µM | 5.01 µM | 3.23 µM | – | 3.08 µM | 4.91 µM | 19.2 µM | – | – | – | 6.08 µM | 10.7 µM | 1.61 µM | 4.84 µM
